In patent US20240415840A1, “BICYCLIC AMINES AS CDK2 INHIBITORS” (Incyte Corporation, priority 2023, published 2024):
Where “and” joins values, the source holds several entries; their conditions need not be identical. Equal entries are not always repeated. Where two headings read alike, the source gives them in different places. One block for each compound: values may come before it.

Legend:
CDK2/Cyclin E1 = target: T1, CDK2/Cyclin E1 (Homo sapiens, UniProt P24941); test: CDK2/Cyclin E1 HTRF enzyme activity assay; assay type: biochemical; details: 1 mM ATP
T1 construct: enzyme activity assays utilize full-length human CDK2; GST (N); purchased Carna 04-165; host or cells: baculovirus expression system
Method: CDK2/Cyclin E1 enzyme activity assays utilize full-length human CDK2 co-expressed as N-terminal GST-tagged protein with FLAG-Cyclin E1 in a baculovirus expression system (Carna Product Number 04-165). Assays were conducted in white 384-well polystyrene plates in a final reaction volume of 8 μL. CDK2/Cyclin E1 (0.25 nM) was incubated with the compounds of the Examples (40 nL serially diluted in DMSO) in the presence of ATP (50 μM or 1 mM) and 50 nM ULight™-labeled eIF4E-binding protein 1 (THR37/46) peptide (PerkinElmer) in assay buffer (containing 50 mM HEPES pH 7.5, 1 mM EGTA, 10 mM MgCl2, 2 mM DTT, 0.05 mg/mL BSA, and 0.01% Tween 20) for 60 minutes at room temperature. The reactions were stopped by the addition of EDTA and Europium-labeled anti-phospho-4E-BP1 antibody (PerkinElmer), for a final concentration of 15 mM and 1.5 nM, respectively. HTRF signals were read after 1 hour at room temperature on a PHERAstar FS plate reader (BMG Labtech). Data was analyzed with Genedata Screener software using a three or four parameter dose response curve to determine IC50 for each compound.

[1] = In vivo rat CNS protocol: brain, CSF and plasma concentrations after IV dosing
Method: The brain, CSF, and plasma concentrations of the compound of Example 1 (8-isopropoxy-7-(1H-pyrazol-4-yl)-N-(tetrahydro-2H-pyran-4-yl)-[1,2,4]triazolo[1,5-c]pyrimidin-2-amine) were determined in rats after IV dosing. The compound of Example 1 was formulated in 10% dimethylacetamide in acidified saline. Male rats (n=4) were given an IV bolus of the compound of Example 1 at 2.0 mg/kg, followed by an IV infusion at 1.2 mg/kg/h for 4 hours. Blood samples were collected at 2 hours and 4 hours in tubes containing EDTA as anticoagulant and centrifuged to obtain plasma. At 4 hours, brain and CSF samples were also collected. The CSF samples were mixed with blank rat plasma (1:1 v/v) to minimize adsorption of the compound of Example 1 to the collection device. Brain, CSF, and plasma samples were frozen and concentrations of the compound of Example 1 were determined by LC-MS/MS.

P-gp = target: T2, P-gp (Homo sapiens, UniProt P08183); test: Efflux transporter substrate assessment (Caco-2 studies), P-gp; assay type: in vitro ADME
T2 construct: in vitro permeability studies using Caco-2 cells; endogenous in cells; host or cells: Caco-2 cells

Caco-2 cells = test: In vitro permeability studies using Caco-2 cells; assay type: in vitro ADME
[2] = In vitro permeability studies using Caco-2 cells; assay type: in vitro ADME; details: human, A-B
BCRP = target: T3, BCRP (Homo sapiens, UniProt Q9UNQ0); test: Efflux transporter substrate assessment (Caco-2 studies), BCRP; assay type: in vitro ADME
T3 construct: in vitro permeability studies using Caco-2 cells; endogenous in cells; host or cells: Caco-2 cells
T3 sequence (Q9UNQ0 1-655): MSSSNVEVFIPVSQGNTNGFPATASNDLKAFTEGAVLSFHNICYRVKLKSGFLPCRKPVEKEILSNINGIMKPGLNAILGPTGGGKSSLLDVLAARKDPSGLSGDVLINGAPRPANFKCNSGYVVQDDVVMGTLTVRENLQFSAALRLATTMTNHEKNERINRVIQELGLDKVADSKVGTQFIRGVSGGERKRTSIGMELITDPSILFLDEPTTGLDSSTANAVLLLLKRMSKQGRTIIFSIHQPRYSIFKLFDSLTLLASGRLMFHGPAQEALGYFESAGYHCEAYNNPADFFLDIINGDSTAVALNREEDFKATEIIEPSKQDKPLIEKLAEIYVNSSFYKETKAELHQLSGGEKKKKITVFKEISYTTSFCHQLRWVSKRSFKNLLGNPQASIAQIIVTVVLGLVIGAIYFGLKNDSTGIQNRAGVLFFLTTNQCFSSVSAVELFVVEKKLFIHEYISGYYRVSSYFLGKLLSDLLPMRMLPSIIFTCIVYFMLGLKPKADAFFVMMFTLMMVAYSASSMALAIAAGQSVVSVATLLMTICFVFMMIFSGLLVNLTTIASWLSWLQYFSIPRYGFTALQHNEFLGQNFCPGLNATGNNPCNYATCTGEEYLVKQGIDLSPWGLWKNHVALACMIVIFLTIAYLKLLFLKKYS

[3] = In vitro rat plasma unbound fraction; assay type: in vitro ADME
[4] = male rats (n=4), IV infusion, 4 h, mean ± SD

T2 sequence (P08183 whole entry): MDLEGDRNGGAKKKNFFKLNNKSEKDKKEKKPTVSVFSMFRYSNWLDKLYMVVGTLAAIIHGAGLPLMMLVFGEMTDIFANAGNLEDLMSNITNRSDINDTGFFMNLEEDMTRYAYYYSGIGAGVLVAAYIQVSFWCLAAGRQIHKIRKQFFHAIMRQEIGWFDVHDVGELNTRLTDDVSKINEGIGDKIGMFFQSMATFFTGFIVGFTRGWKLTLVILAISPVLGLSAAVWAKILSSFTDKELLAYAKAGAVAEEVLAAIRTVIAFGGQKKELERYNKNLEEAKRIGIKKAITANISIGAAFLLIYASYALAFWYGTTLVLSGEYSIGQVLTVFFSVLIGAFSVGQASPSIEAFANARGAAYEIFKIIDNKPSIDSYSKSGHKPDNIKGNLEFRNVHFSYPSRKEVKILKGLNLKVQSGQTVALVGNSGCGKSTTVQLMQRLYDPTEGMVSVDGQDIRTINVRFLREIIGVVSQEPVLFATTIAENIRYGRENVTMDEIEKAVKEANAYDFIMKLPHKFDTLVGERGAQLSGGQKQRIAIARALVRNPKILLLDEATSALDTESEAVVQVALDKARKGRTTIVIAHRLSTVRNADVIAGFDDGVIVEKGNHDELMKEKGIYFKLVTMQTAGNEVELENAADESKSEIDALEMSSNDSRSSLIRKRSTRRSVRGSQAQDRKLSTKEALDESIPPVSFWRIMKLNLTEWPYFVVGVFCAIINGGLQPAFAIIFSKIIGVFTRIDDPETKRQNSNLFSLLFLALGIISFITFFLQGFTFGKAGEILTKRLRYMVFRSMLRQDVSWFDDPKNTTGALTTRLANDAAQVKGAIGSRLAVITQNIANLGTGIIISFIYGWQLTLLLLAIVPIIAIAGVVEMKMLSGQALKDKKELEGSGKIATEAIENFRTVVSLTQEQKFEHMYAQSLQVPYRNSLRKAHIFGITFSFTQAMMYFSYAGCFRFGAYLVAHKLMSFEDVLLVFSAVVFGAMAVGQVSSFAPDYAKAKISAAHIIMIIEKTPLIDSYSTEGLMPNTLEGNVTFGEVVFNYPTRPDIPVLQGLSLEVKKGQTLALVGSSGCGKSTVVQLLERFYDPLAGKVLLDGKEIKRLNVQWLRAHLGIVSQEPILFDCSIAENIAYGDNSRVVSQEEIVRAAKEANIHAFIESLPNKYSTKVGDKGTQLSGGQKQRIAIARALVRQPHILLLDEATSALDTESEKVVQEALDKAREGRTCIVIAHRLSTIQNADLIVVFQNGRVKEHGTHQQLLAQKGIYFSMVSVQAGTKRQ

- IC50 (CDK2/Cyclin E1): ≤ 10 nM
SMILES: CC(Oc1c(-c2cn[nH]c2)ccn2nc(NC3CCOCC3)nc12)C(F)F (single isomer, unassigned) [Example 6]

- IC50 (CDK2/Cyclin E1): ≤ 10 nM
SMILES: CC(Oc1c(-c2cn[nH]c2)ncn2nc(NC3CCOCC3)nc12)C(F)(F)F (single isomer, unassigned) [Example 7]

- IC50 (CDK2/Cyclin E1): ≤ 10 nM
- Brain/Plasma (%) ([1]; 4 h, individual rats 1001-1004): 60% and 89% and 73%
- CSF/unbound plasma concentration (%) ([1]; 4 h, individual rats 1001-1004): 37% and 42% and 38%
- Plasma free (unbound) concentration, 4 h ([1]; calculated using rat plasma in vitro unbound fraction, 4 h, individual rats 1001-1004): 1.45 µM and 1.22 µM and 1.70 µM
- Plasma total concentration, 4 h, mean ([1]; male rats (n=4), IV bolus 2.0 mg/kg then IV infusion 1.2 mg/kg/h for 4 h, 4 h, mean ± SD): 2.41 ± 0.46 µM
- Brain concentration, 4 h, mean [1, 4]: 1740 ± 370 nM
- CSF concentration, 4 h, mean [1, 4]: 0.579 ± 0.062 µM
- Plasma total concentration, 2 h ([1]; male rats, IV bolus 2.0 mg/kg then IV infusion 1.2 mg/kg/h for 4 h, 2 h, individual rats 1001-1004): 1.44 µM and 1.41 µM and 1.71 µM
- Plasma total concentration, 4 h ([1]; male rats, IV bolus 2.0 mg/kg then IV infusion 1.2 mg/kg/h for 4 h, 4 h, individual rats 1001-1004): 2.55 µM and 2.14 µM and 2.98 µM
- concentration at 4 h ([1]; male rats, IV infusion, 4 h, individual rats 1001-1004, read-out: Brain concentration, 4 h): 1520 nM and 1910 nM and 2170 nM
- concentration at 4 h ([1]; male rats, IV infusion, 4 h, individual rats 1001-1004, read-out: CSF concentration, 4 h): 541 nM and 517 nM and 653 nM
- Kp at 4 h ([1]; male, rat, CSF / unbound plasma, intravenous, 4 h, individual rats 1001-1004, read-out: CSF/unbound plasma concentration (%)): 0.54
- Kp at 4 h ([1]; male, rat, CSF / unbound plasma, intravenous, 4 h, mean, read-out: CSF/unbound plasma concentration (%), mean): 0.43
- concentration at 4 h ([1]; male, rat, CSF, iv, male rats (n=4), IV infusion, 4 h, mean ± SD, read-out: CSF concentration, 4 h, mean): 579 ± 62 nM
- concentration at 4 h ([1]; male, rat, CSF, iv, male rats, IV infusion, 4 h, individual rats 1001-1004, read-out: CSF concentration, 4 h): 604 nM
- Kp at 4 h ([1]; male, rat, brain / plasma, intravenous, 4 h, individual rats 1001-1004, read-out: Brain/Plasma (%)): 0.7
- Kp at 4 h ([1]; male, rat, brain / plasma, intravenous, 4 h, mean, read-out: Brain/Plasma (%), mean): 0.73
- concentration at 4 h ([1]; male, rat, brain, iv, male rats (n=4), IV infusion, 4 h, mean ± SD, read-out: Brain concentration, 4 h, mean): 1740 ± 370 nM
- concentration at 4 h ([1]; male, rat, brain, iv, male rats, IV infusion, 4 h, individual rats 1001-1004, read-out: Brain concentration, 4 h): 1360 nM
- concentration at 4 h ([1]; male, rat, plasma (unbound), intravenous, calculated using rat plasma in vitro unbound fraction, 4 h, individual rats 1001-1004, read-out: Plasma free (unbound) concentration, 4 h): 1110 nM
- concentration at 4 h ([1]; male, rat, plasma (unbound), intravenous, calculated using rat plasma in vitro unbound fraction, 4 h, mean ± SD, read-out: Plasma free (unbound) concentration, 4 h, mean): 1370 ± 260 nM
- concentration at 2 h ([1]; male, rat, plasma, intravenous, male rats (n=4), IV bolus 2.0 mg/kg then IV infusion 1.2 mg/kg/h for 4 h, 2 h, mean ± SD, read-out: Plasma total concentration, 2 h, mean): 1460 ± 180 nM
- concentration at 4 h ([1]; male, rat, plasma, intravenous, male rats (n=4), IV bolus 2.0 mg/kg then IV infusion 1.2 mg/kg/h for 4 h, 4 h, mean ± SD, read-out: Plasma total concentration, 4 h, mean): 2410 ± 460 nM
- concentration at 2 h ([1]; male, rat, plasma, intravenous, male rats, IV bolus 2.0 mg/kg then IV infusion 1.2 mg/kg/h for 4 h, 2 h, individual rats 1001-1004, read-out: Plasma total concentration, 2 h): 1270 nM
- concentration at 4 h ([1]; male, rat, plasma, intravenous, male rats, IV bolus 2.0 mg/kg then IV infusion 1.2 mg/kg/h for 4 h, 4 h, individual rats 1001-1004, read-out: Plasma total concentration, 4 h): 1950 nM
- substrate of P-gp efflux transporter (P-gp): not a substrate
- Caco-2 permeability (in words) (Caco-2 cells): highly permeable
- Papp A→B [2]: 16 ×10⁻⁶ cm/s
- substrate of BCRP efflux transporter (BCRP): not a substrate
- fraction unbound [3]: 0.57
SMILES: CC(C)Oc1c(-c2cn[nH]c2)ncn2nc(NC3CCOCC3)nc12 [Example 1, 8-Isopropoxy-7-(1H-pyrazol-4-yl)-N-(tetrahydro-2H-pyran-4-yl)-[1,2,4]triazolo[1,5-c]pyrimidin-2-amine]
- penetration across the rat blood-brain barrier (in words) ([1]; rat, IV infusion): readily penetrates across the rat blood-brain barrier

- IC50 (CDK2/Cyclin E1): ≤ 10 nM
SMILES: CC(Oc1c(-c2cn[nH]c2)ccn2nc(NC3CCOCC3)nc12)C(F)F (single isomer, unassigned) [Example 5]

- IC50 (CDK2/Cyclin E1): ≤ 10 nM
SMILES: CC(Oc1c(-c2cn[nH]c2)ncn2nc(NC3CCOCC3)nc12)C(F)F (single isomer, unassigned) [Example 10]

- IC50 (CDK2/Cyclin E1): ≤ 10 nM
SMILES: CC(Oc1c(-c2cn[nH]c2)ccn2nc(NC3CCOCC3)nc12)C(F)(F)F (single isomer, unassigned) [Example 4]

- IC50 (CDK2/Cyclin E1): ≤ 10 nM
SMILES: CC(C)Oc1c(-c2cn[nH]c2)ccn2nc(NC3CCOCC3)nc12 [Example 2, 8-Isopropoxy-7-(1H-pyrazol-4-yl)-N-(tetrahydro-2H-pyran-4-yl)-[1,2,4]triazolo[1,5-a]pyridin-2-amine]

- IC50 (CDK2/Cyclin E1): ≤ 10 nM
SMILES: CC(Oc1c(-c2cn[nH]c2)ccn2nc(NC3CCOCC3)nc12)C(F)(F)F (single isomer, unassigned) [Example 3]

- IC50 (CDK2/Cyclin E1): ≤ 10 nM
SMILES: CC(Oc1c(-c2cn[nH]c2)ncn2nc(NC3CCOCC3)nc12)C(F)(F)F (single isomer, unassigned) [Example 8]

- IC50 (CDK2/Cyclin E1): ≤ 10 nM
SMILES: CC(Oc1c(-c2cn[nH]c2)ncn2nc(NC3CCOCC3)nc12)C(F)F (single isomer, unassigned) [Example 9]
